We go through four molecules from publication PMC4245125, “Pharmacological and Behavioral Characterization of D-473, an Orally Active Triple Reuptake Inhibitor Targeting Dopamine, Serotonin and Norepinephrine Transporters” (PLoS ONE, 2014).

Data set [1] in a line: Plasma concentration after oral administration in rats. The format is in vivo. Conditions: rat, male Sprague-Dawley rats, 25 mg/kg PO. The procedure: Sample preparation: Following oral administration of 25 mg/kg of D-473 and D-142 in male Sprague Dawley rats, the blood samples were collected at different time points over a period of 8 h for analysis. Concentrations of D-473 and D-142 in plasma were quantitated using a set of calibration standards prepared in blank matrix that were processed in parallel. Plasma concentration evaluation was carried out by the CRO, Absorption System, PA. Additionally, brain uptake studies of D-473 were carried out at three different time points (2, 4 and 6 h) following oral administration of 25 mg/kg D-473. Concentrations of D-473 in rat brain were quantitated using a set of calibration standards which were prepared in blank brain homogenate matrix on the day of analysis. The standard samples (5, 10, 25, 100, 500, 1000, and 2000 ng/mL) for calibration curve were prepared by spiking 45 µL of blank rat plasma with 5 µL of appropriate working dilution of D-473 in acetonitrile. The bioanalytical sample preparation for brain and plasma analysis followed by quantification of test compounds entailed the addition of 250 µL acetonitrile to every 50 µL of standard and analyte samples to precipitate tissue plasma proteins and tissue macromolecules. These mixtures were then vortexed for 15 min at 1400 rpm. The suspensions were then clarified by centrifugation (18000 g, 10 min at 4°C), and each 150 µL of the resulting supernatant was mixed well with 50 µL 0.1% formic acid in 50/50 (v/v) ACN/water solution for about 10 sec. The mixtures were again centrifuged (18000 g, 10 min at 4°C) before 100 µL of clear supernatant were transferred to auto sampler vials for LC-MS/MS analysis.
The analysis of blood sample was carried out by the CRO Absorption system, PA. Briefly, the analysis was carried out by Waters Acquity UPLC equipped with PE Sciex API4000 mass spectrometer. Reverse phase Waters Acquity BEH Phenyl Column 1.7micron, 2.1×30 mm column was used for analysis. 5 µL of sample solutions were injected with a flow rate 1 mL/min and the samples were eluted with gradient elution using solvent A (10% buffer: 90% water) and solvent B (10% buffer: 90% acetonitrile). Buffer used was 40 mM Ammonium Formate Buffer, pH 3.5. Pharmacokinetic prarameters were estimated by a non-compartmental model using WinNonlin v5.2.1 software.

The conditions of data set [2]: found earlier by the authors; no reference given; cited from earlier work.
In the next data set the target is hDAT (Homo sapiens, UniProt Q01959). Nature of the data set: Inhibition of [3H]DA uptake by cloned human DAT in HEK293 cells. Conditions: nM, HEK293 cells expressing hDAT, average±S.E.M., 3 to 10 determinations.
hDAT, sequence (Q01959 whole entry): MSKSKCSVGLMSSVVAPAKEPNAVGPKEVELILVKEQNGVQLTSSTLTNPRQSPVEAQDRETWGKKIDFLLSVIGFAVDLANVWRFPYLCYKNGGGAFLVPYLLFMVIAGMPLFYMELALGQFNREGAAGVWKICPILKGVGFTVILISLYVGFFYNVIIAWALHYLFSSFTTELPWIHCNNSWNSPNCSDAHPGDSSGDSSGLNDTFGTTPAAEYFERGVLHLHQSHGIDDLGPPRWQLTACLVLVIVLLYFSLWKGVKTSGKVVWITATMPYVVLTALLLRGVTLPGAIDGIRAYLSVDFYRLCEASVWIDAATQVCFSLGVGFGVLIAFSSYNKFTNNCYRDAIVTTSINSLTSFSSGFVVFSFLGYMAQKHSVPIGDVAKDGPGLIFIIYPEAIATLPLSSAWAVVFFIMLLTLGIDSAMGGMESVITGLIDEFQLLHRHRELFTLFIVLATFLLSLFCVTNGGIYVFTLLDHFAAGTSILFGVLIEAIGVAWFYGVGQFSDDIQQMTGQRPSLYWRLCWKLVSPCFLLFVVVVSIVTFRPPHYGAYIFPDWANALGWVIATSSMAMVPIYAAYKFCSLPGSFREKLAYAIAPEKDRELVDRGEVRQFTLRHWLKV
The next data set has as its target hNET (Homo sapiens, UniProt P23975). The data set can be described thus: Inhibition of [3H]DA uptake by cloned human NET in HEK293 cells. Conditions: NET uptake, Ki, nM [3H]DA, HEK293 cells expressing hNET; average±S.E.M., 3 to 10 determinations.
For the next data set, the target named is hSERT (Homo sapiens, UniProt P31645). Nature of the data set: Inhibition of [3H]5-HT uptake by cloned human SERT in HEK293 cells.
hSERT, sequence (P31645 whole entry): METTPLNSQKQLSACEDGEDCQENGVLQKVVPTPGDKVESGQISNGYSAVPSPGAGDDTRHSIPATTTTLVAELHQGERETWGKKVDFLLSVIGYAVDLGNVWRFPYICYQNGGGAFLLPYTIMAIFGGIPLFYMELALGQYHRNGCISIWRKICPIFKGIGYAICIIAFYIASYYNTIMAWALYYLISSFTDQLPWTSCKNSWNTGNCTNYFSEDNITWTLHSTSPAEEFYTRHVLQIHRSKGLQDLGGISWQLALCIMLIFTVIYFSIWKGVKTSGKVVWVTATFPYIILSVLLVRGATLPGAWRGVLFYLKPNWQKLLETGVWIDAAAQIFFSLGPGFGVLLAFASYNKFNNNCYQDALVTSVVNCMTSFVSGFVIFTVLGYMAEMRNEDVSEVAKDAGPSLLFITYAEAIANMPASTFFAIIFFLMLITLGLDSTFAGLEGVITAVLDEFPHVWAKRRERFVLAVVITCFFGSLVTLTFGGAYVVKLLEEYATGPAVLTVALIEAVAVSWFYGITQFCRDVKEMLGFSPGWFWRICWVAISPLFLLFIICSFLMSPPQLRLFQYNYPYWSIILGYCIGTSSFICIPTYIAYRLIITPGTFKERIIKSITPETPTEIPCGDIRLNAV
The subject of data set [3] is locomotor activity (horizontal activity). Nature of the data set: Locomotor activity in rats. The format is in vivo. Conditions: rat; 5 mg/kg i.p.; vs vehicle (P<0.001). The procedure:
Sprague Dawley Rats were tested at 25 mg/kg oral dose of D-473 to monitor changes in any locomotor activity in acrylic Auto-Track/Opto-Varimex-4 System (Columbus Instrument; Columbus, Ohio). The purpose was to evaluate locomotor activity of the same doses of drug that were used in the forced swim test. Rats were acclimated in the test chambers for 1 h prior to oral administration of D-473. Locomotor activity of the drug was measured for a total of two hour post administration of the drug which corresponded to the time of measurement in the forced swimming experiment. GBR 12909 was studied as a control drug known to stimulate and was administered i.p. as in published studies; vehicle was orally administered.

The subject of the next data set is dialysate DOPAC. More on the design: method as in PMID 2477259. Conditions: DAT releaser; cited from earlier work.

Structures can show the parent of a compound that is named as a salt.

hNET, sequence (P23975 whole entry): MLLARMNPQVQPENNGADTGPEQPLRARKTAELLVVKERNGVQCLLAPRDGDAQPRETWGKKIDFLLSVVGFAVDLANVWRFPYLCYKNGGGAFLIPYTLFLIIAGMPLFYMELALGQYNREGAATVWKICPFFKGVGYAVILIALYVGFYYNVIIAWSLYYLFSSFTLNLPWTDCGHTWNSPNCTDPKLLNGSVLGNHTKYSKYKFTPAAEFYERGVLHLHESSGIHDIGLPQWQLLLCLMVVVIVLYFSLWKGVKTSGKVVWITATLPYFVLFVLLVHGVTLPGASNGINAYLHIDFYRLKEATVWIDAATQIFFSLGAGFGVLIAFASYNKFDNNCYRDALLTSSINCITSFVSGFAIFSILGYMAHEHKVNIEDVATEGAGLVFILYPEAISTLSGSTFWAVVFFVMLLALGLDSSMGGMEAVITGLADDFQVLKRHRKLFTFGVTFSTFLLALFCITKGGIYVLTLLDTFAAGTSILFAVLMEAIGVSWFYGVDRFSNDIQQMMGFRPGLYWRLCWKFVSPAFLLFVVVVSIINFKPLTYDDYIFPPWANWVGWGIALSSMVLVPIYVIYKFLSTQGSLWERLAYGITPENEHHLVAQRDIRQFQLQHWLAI

By melting point is commonly meant the temperature of the solid-liquid transition. For the molecule `COc1ccc(CN[C@@H]2CO[C@H](C(c3ccc(F)cc3)c3ccc(F)cc3)C[C@H]2O)cc1` (as salt: hydrochloride) [Compound D-473, (2S,4R,5R)-2-(bis(4-fluorophenyl)methyl)-5-((4-methoxybenzyl)amino)tetrahydro-2H-pyran-4-ol], the melting point lay in the range of 190 to 205 °C.
As usually defined, the half-life is the time in which the quantity being followed falls by half. The term Ki denotes a dissociation constant, usually derived from enzyme kinetics or from competition with a known ligand. Higher therefore signals lower affinity. On to `COc1ccc(CN[C@@H]2CO[C@H](C(c3ccccc3)c3ccccc3)C[C@H]2O)cc1` [Compound D-142], for which, in data set [1] (3% HPßCD in water, read-out: Average maximum plasma concentration, Cmax), the Cmax was determined as 125 ± 36.6 ng/mL. In addition, in data set [1] (read-out: Average half-life (converted)), the half-life is 2.5 ± 0.96 h. The Oral bioavailability result in data set [2] was “poor oral bioavailability”. Moreover, the values for the Ki on hDAT, at hNET and at hSERT were 179 ± 27 nM, 21.2 ± 4.3 nM and 5.43 ± 1.4 nM, respectively.
Take `Fc1ccc(C(OCCN2CCN(CCCc3ccccc3)CC2)c2ccc(F)cc2)cc1` [GBR 12909, 1-[2-[bis(4-fluorophenyl)methoxy]ethyl]-4-[3-phenylpropyl]piperazine, reference compound]: the “Locomotor activity (horizontal activity)” value in data set [3] is recorded as “significant rise”.
For the molecule `CC(N)Cc1ccccc1` (stereo not drawn) [amphetamine], the “Reductions in DOPAC” value in the data set on dialysate DOPAC is about 65%.
